In patent US20250236596A1, “HYDROXYLAMINE-BASED EGFR INHIBITORS FOR TREATMENT OF CANCER WITH BRAIN METASTASES” (University of Georgia Research Foundation, Inc., priority 2022, published 2025) one finds IC50 data, which are given here for one molecule.

For the series, the target named is CYP1A2 (Homo sapiens, UniProt P05177). As to the kind of experiment: Human CYP450 inhibition in human liver microsomes, CYP1A2. The conditions noted are these: pooled human liver microsomes, probe phenacetin (40 μM), O-demethylation. Type of series: in vitro ADME. Here is the method: Assessment of compound 15 was carried out at Pharmaron Inc. for its potential to inhibit cytochrome P450 (CYP) isoforms using human liver microsomes. The activities tested were CYP1A2-mediated phenacetin O-demethylation, CYP2C19-mediated (S)-mephenytoin 4′-hydroxylation, CYP2C9-mediated diclofenac 4′-hydroxylation, CYP2D6-mediated dextromethorphan O-demethylation and CYP3A4-mediated midazolam 1′-hydroxylation. Concentrations of substrates were phenacetin (40 μM), mephenytoin (50 μM), diclofenac (6 μM), dextromethorphan (2 μM) and midazolam (1 μM). Probe substrates phenacetin, mephenytoin and dextromethorphan were incubated at 37° for 20 min. Probe substrates diclofenac and midazolam were incubated at 37° for 5 min. […] The reactions were initiated by adding NADPH (1 mM final concentration) after a 5 min-preincubation and the assay was ran in duplicate (n=2). Samples were analyzed by UPLC-MS/MS.
Chain of CYP1A2 (P05177 whole entry, canonical isoform): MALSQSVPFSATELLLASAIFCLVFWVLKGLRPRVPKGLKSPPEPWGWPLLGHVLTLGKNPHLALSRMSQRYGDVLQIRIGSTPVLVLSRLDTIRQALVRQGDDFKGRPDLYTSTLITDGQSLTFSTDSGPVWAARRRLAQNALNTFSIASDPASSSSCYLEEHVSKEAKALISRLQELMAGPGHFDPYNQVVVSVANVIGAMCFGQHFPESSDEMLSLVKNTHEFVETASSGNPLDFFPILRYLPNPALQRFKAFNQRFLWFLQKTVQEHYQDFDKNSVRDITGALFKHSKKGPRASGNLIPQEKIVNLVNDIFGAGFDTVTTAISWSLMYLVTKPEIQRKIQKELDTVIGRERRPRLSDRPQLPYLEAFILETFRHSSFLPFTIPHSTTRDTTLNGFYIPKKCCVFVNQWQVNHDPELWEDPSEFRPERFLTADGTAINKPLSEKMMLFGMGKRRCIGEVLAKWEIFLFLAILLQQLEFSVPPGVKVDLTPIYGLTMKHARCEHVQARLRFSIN

As to `COc1cc2ncnc(Nc3cccc(Cl)c3F)c2cc1OCCON1CCN(C)CC1` [Compound 15, N-(3-chloro-2-fluorophenyl)-7-methoxy-6-(2-((4-methylpiperazin-1-yl)oxy)ethoxy)quinazolin-4-amine], the half-maximal inhibitory concentration (IC50) at 20 min was more than 30 µM.
